{"source": "patent US20130237478A1", "about": "“COMPOSITIONS AND METHODS FOR TREATMENT OF PERIPHERAL VASCULAR DISEASE” (TARIX PHARMACEUTICALS LTD., priority 2012, published 2013)", "format_in_all_cases": "in vivo, Balb/c mice", "key": {"hind limb ischemia [1]": {"tested_on": "hind limb ischemia", "test": "Capillary density in muscle sections, mouse hind limb ischemia model", "details": "Example 2, 49 days after treatment beginning", "from_the_text": "The model used in this example is the same as for Example 1. Briefly, the hind limb ischemia model in mice used in this example involves two ligations of the proximal end of the femoral artery and its dissection between the two ligatures. The surgery causes obstruction of the blood flow and subsequently leads to severe ischemic damage (Goto, et al.; Kang, et al.). In this experiment, healthy adult female Balb/c mice were used. Hind limb ischemia was induced in mice using protocols previously described. Briefly, Balb/c female mice were maintained on a standard diet with water available ad libitum. Mice were anesthetized and an incision was made in the skin in the inguinal area. The femoral artery was ligated twice with 6-0 silk thread and transected between the ligatures after this the wound was closed with 4-0 silk thread and the mouse was allowed to recover.\n(§1) An Angiotensin (1-7) polypeptide composition (PanCyte) and vehicle control (DPBS) were supplied as ready to use solutions and were stored at 4° C. until use. […]\nSections of muscle samples were taken from the same areas in 6-7 animals from each group. Capillaries were counted under a microscope in a total 12 random fields from different sections. Density was expressed as the mean number of capillaries per field of view. […]"}, "hind limb ischemia [2]": {"tested_on": "hind limb ischemia", "test": "Semi-quantitative assessment of limb function in mouse hind limb ischemia model", "from_the_text": "A stable hind limb ischemia model has been described previously and is generally characterized by uniform ischemic damage useful for examining the effect of various therapies (Goto, et al. Tokai J Exp Clin Med, 31(3):128 2006; Kang Y, et al. PLoS One. 2009; 4(1):e4275)). The hind limb ischemia model in mice used in this example involves two ligations of the proximal end of the femoral artery and its dissection between the two ligatures. The surgery causes obstruction of the blood flow and subsequently leads to severe ischemic damage (Goto, et al.; Kang, et al.). In this experiment, healthy adult female Balb/c mice were used. Hind limb ischemia was induced in mice using protocols previously described. Briefly, Balb/c female mice were maintained on a standard diet with water available ad libitum. Mice were anesthetized and an incision was made in the skin in the inguinal area. The femoral artery was ligated twice with 6-0 silk thread and transected between the ligatures after this the wound was closed with 4-0 silk thread and the mouse was allowed to recover.\nAn Angiotensin (1-7) polypeptide composition (TXA127) and vehicle control (DPBS) were supplied as ready to use solutions and were stored at 4° C. until use. TXA127 was injected subcutaneously (500 μg/kg) daily starting on day 1, 24 hours after inducing ischemia, until the end of the study. […]\nSemi-quantitative assessment of impaired use of the ischemic limb was performed once a week post-surgery using the scale shown in Table 6 (Stabile et al, Circulation 108(2):205 2003). […]\nas §1\nSemi-quantitative assessment of impaired use of the ischemic limb was performed once a week post-surgery using the scale shown in Table 6 above. […]\nAn Angiotensin (1-7) polypeptide composition (PanCyte, cyclized Asp^1-Arg^2-Val^3-Ser^4-Ile^5-His^6-Cys (SEQ ID NO:22)) and vehicle control (DPBS) were supplied as ready to use solutions and were stored at 4° C. until use. […]"}, "[3]": {"test": "Body weight of mice in hind limb ischemia studies", "details": "throughout the study", "method": "Body weight of animals was measured before the surgery and once weekly thereafter.\nThe model and procedures used for this example is the same as for those in Examples 1 and 2, unless otherwise specified."}}, "note": "Positions of bridges follow the written chain, without caps; N, C: chain ends. No end group written: not given here."}
{"substance": "cyclized Asp^1-Arg^2-Val^3-Ser^4-Ile^5-His^6-Cys (SEQ ID NO:22) (DRVSIHC; bridge 4-7; not fully specified; printed as Asp1-Arg2-Val3-Ser4-Ile5-His6-Cys7) [PanCyte, cyclic angiotensin peptide]", "values": [{"measurement": "capillary density (number of capillaries per field) vs control", "setting": "hind limb ischemia [1]; 50 μg/kg SC daily", "result": "significantly increased the number of capillaries"}, {"measurement": "capillary density (number of capillaries per field) vs control", "setting": "hind limb ischemia [1]; 500 μg/kg SC daily", "result": "significantly increased the number of capillaries"}, {"measurement": "limb function vs control", "setting": "hind limb ischemia [2]; Example 2, 500 μg/kg SC daily (2F), day 28", "result": "improvement in limb function"}, {"measurement": "limb function vs control", "setting": "hind limb ischemia [2]; Example 3, 1 μg/kg SC daily (2F), days 14 and 21", "result": "improvement in limb function"}, {"measurement": "limb function vs control", "setting": "hind limb ischemia [2]; Example 3, 50 μg/kg continuous infusion by Alzet pump (6F), days 14 and 21", "result": "improvement in limb function"}, {"measurement": "body weight vs vehicle", "setting": "[3]; Example 2, 500 or 50 μg/kg SC daily", "result": "no statistically significant differences"}, {"measurement": "body weight vs vehicle", "setting": "[3]; Example 3, 1-50 μg/kg SC", "result": "no statistically significant differences"}]}
